Source: ChEMBL document CHEMBL1201862, “PubChem BioAssay data set” (2004)
Values belong to the molecule of their own block, whether it stands above or below them. Active and inactive are the calls of the source.

Experiments:
Cytochrome P450 3A4 = Cytochrome P450 3A4 (Homo sapiens, UniProt P08684);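 further: CYP3A4 tested as one member of a cytochrome P450 panel screen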
Cytochrome P450 2D6 = Cytochrome P450 2D6 (Homo sapiens, UniProt P10635);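 further: CYP2D6 member of a cytochrome P450 panel assay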
Chain of Cytochrome P450 2D6 (P10635 whole entry): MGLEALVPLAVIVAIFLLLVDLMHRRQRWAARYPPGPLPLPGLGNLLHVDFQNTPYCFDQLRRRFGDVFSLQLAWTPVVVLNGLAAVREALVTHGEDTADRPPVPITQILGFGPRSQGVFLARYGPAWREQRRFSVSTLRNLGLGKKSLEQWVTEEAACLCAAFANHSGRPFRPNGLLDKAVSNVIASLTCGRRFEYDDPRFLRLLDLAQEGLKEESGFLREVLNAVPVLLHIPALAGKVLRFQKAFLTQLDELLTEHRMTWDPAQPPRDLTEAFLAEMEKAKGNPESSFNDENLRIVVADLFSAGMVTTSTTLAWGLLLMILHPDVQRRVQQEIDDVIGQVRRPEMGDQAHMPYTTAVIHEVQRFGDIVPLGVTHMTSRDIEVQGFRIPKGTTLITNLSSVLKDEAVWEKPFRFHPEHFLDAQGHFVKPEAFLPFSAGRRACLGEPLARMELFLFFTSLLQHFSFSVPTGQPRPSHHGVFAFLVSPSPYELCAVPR

Cytochrome P450 2C19 = Cytochrome P450 2C19 (Homo sapiens, UniProt P33261); test: Cytochrome panel assay with activity outcomes. Panel member name: p450-cyp2c19 Compounds with AC50 equal or less than 10 uM are considered active; format: functional
Chain of Cytochrome P450 2C19 (P33261 whole entry): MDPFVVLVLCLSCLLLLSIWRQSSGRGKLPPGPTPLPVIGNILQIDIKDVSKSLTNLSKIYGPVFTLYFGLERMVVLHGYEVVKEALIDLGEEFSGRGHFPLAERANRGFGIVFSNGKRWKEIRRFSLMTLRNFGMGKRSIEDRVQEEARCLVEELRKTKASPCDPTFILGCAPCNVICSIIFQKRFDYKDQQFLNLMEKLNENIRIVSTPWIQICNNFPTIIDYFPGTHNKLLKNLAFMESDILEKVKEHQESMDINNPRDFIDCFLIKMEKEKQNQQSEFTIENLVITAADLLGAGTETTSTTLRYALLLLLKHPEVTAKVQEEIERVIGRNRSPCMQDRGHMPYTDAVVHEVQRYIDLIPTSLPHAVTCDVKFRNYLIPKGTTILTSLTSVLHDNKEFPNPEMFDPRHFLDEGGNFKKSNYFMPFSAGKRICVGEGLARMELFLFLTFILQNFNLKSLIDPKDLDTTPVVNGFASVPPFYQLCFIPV

[1] = biological target: Voltage-dependent T-type calcium channel subunit alpha-1H (Homo sapiens, UniProt O95180); format: functional;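 further: channel activity triggered by adding a high calcium stimulation buffer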
Chain of Voltage-dependent T-type calcium channel subunit alpha-1H (O95180 whole entry): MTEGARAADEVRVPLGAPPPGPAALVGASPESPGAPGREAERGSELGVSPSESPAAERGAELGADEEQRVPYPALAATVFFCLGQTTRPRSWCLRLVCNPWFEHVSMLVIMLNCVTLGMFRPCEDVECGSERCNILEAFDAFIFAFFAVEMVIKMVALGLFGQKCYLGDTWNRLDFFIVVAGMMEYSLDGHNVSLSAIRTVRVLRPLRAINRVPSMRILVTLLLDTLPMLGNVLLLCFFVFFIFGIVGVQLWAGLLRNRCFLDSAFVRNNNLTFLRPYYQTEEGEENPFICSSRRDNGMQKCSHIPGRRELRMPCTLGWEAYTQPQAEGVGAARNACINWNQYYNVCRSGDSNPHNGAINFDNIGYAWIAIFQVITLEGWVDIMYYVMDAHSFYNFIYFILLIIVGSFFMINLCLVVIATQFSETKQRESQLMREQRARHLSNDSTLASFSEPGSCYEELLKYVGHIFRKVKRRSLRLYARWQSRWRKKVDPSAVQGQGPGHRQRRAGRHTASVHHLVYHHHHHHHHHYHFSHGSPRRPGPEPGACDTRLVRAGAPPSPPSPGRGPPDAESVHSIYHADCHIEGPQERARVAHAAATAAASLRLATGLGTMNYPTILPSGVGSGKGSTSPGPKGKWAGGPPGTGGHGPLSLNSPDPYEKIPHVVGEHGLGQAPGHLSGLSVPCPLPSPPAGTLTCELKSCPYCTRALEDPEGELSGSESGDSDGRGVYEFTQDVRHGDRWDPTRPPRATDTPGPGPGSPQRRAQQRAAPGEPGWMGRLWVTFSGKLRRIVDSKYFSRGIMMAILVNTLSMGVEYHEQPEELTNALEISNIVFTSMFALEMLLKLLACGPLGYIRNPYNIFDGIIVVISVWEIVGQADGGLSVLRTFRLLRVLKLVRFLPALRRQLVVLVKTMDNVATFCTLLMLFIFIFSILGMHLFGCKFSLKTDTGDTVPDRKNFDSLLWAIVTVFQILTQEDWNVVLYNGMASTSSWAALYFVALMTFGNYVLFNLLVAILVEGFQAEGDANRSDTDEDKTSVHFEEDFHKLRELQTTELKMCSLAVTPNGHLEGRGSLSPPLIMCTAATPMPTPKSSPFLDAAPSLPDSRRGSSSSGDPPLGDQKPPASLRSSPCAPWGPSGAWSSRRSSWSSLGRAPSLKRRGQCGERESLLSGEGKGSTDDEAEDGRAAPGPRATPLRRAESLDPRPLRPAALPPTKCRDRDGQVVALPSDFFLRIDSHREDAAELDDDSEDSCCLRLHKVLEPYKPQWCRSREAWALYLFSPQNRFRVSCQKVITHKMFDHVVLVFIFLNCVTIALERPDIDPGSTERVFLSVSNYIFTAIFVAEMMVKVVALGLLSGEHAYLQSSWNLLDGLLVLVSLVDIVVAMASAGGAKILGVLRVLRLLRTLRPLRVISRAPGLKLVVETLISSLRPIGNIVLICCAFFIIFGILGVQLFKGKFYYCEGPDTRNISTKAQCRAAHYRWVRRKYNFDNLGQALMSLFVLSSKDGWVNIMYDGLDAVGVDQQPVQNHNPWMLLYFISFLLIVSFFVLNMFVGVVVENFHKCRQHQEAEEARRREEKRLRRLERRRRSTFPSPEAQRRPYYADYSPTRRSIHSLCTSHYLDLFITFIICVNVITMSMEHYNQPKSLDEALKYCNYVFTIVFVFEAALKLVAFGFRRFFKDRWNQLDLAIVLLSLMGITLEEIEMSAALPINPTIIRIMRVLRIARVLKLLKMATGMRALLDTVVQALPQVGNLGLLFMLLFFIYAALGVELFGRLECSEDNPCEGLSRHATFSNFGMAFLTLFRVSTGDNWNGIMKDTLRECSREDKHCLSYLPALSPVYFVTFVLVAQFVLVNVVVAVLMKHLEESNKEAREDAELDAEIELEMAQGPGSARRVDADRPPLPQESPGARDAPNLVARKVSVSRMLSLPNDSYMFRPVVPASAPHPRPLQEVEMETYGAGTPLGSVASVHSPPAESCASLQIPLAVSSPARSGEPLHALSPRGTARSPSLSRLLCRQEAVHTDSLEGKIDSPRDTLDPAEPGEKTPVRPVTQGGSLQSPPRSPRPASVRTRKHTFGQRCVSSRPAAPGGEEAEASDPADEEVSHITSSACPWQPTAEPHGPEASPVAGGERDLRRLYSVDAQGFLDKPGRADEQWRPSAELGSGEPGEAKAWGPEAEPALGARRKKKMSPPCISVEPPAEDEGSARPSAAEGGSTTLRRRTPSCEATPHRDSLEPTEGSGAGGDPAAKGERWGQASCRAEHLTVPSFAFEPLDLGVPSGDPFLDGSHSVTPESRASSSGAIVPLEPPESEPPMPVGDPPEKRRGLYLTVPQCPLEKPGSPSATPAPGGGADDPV

HeLa = test: ATP-based viability loss in HeLa cells – cell-based, CellTiter-Glo luminescence, cherry-pick samples, cytotoxicity control for MITF activator project, dose response (AID 540259); format: functional; settings: Homo sapiens
[2] = Counterscreen for AddAB inhibitors: absorbance-based bacterial cell-based high throughput dose response assay for inhibitors of bacterial viability. [Related pubchem assays (depositor defined):AID435030, AID449728, AID449731, AID488942, AID488955, AID488956]; format: functional
Exodeoxyribonuclease V = biological target: T1, Exodeoxyribonuclease V (Escherichia coli (strain K12), UniProt P04993+P07648+P08394); test: RecBCD inhibition via phage-restricted bacterial growth – absorbance, V66 E. coli, mutant T4 phage, counter-screen for AddAB inhibitor project, dose response (AID 492957); format: functional, cell-based, Escherichia coli str. K-12 substr. MG1655
T1 sequence (P04993 whole entry): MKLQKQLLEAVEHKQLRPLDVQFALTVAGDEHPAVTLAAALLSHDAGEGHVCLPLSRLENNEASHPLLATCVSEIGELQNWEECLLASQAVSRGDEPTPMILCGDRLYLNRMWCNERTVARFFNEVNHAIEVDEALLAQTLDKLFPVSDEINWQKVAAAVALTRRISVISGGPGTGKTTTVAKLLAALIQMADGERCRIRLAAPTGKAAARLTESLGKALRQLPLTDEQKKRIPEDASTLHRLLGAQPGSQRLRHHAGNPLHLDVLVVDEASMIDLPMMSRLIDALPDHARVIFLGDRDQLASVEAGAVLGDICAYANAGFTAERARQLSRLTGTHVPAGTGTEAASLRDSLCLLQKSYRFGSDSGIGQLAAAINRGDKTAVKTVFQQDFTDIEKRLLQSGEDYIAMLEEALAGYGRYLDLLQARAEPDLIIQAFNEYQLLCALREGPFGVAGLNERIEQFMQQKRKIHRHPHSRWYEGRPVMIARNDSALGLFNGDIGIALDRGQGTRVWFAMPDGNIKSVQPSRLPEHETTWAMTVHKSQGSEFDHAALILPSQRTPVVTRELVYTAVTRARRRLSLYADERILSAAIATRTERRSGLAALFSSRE
T1 sequence (P07648 whole entry): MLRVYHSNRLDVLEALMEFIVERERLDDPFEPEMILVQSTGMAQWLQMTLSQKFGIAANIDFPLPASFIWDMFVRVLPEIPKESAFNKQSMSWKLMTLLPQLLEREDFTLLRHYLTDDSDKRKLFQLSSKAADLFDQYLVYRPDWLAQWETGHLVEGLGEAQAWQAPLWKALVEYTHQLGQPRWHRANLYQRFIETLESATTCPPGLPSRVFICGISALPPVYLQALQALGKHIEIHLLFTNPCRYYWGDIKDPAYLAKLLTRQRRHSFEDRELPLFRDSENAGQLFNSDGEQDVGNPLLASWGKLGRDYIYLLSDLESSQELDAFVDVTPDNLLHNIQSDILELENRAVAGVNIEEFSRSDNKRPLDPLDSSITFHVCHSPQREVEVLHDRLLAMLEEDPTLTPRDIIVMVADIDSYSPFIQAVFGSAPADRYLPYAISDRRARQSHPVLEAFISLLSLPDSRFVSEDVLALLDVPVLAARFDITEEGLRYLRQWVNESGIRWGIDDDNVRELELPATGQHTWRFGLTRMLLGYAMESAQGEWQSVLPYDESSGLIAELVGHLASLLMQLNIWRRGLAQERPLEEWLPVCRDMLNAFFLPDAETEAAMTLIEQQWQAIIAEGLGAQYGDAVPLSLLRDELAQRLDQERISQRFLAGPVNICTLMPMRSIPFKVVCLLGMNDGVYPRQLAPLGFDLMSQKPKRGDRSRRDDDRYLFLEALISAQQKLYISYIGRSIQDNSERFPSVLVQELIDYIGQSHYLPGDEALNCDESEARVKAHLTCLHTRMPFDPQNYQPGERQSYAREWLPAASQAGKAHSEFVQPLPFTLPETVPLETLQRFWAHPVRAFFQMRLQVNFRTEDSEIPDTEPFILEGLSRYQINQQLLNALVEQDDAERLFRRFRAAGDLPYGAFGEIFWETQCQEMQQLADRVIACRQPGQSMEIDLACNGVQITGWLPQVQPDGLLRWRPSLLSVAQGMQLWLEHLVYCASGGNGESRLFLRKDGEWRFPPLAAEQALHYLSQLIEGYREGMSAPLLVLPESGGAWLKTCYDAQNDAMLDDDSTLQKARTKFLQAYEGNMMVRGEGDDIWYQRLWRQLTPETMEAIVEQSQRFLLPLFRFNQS
T1 sequence (P08394 whole entry): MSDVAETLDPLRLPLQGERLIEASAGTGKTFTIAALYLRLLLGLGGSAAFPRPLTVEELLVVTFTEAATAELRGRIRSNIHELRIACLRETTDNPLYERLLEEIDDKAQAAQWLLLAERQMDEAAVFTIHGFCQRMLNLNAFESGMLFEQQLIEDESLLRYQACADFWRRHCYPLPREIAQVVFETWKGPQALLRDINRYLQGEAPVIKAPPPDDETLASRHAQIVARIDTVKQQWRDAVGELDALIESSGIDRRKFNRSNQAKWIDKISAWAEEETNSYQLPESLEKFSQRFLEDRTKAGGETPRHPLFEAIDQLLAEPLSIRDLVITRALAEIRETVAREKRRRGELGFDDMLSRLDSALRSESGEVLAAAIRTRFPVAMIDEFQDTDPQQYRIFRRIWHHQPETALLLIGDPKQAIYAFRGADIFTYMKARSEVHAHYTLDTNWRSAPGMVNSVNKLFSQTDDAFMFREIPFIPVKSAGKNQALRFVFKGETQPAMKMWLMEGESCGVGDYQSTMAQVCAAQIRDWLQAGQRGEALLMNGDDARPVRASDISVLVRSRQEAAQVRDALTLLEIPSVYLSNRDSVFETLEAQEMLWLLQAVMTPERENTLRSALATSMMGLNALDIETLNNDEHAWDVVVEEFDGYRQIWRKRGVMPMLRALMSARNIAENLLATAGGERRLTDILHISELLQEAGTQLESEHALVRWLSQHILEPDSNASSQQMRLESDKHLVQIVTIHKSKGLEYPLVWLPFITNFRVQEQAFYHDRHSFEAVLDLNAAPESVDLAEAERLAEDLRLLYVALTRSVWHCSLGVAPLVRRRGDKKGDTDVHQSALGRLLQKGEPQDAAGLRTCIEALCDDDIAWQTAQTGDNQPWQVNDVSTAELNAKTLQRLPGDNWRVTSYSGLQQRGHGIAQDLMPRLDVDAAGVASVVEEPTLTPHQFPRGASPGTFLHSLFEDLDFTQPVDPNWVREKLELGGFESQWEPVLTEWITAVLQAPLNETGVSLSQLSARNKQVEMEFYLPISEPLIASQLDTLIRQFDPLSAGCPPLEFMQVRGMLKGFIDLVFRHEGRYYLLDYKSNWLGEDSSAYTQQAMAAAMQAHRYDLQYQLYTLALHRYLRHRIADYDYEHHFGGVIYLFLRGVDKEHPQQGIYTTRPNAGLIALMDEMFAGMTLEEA

Cytochrome P450 1A2 = biological target: T2, Cytochrome P450 1A2 (Homo sapiens, UniProt P05177);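 further: PubChem cytochrome P450 panel assay, CYP1A2 panel member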
T2 sequence (P05177 whole entry): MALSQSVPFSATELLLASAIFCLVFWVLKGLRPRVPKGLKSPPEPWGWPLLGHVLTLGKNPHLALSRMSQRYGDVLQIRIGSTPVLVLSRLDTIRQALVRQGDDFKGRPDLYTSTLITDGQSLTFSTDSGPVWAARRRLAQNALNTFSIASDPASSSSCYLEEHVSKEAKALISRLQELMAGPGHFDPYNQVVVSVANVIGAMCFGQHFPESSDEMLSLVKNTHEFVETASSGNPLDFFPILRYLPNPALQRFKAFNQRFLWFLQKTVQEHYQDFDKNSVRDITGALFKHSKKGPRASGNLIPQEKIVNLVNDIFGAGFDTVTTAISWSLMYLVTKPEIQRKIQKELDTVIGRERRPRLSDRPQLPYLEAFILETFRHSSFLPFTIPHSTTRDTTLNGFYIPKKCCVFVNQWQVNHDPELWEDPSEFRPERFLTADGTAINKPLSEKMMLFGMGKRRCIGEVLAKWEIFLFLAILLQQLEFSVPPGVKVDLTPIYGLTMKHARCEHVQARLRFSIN

[3] = reduction of Shn3 3'UTR-driven luciferase in osteoblasts – cell-based, Clone20 osteoblasts, firefly luciferase, cherry-picked, dose response (AID 624132); format: functional;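 further: firefly luciferase luminescence from reporter carrying the Shn3 3'UTR in osteoblasts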
[4] = NIH3T3 cell viability loss – ATP luminescence, mouse fibroblasts, counter-screen, dose response (AID 2010); format: functional, cell-based;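 further: cells exposed to compound for about 90 hours before reading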
[5] = Trypanosoma cruzi growth suppression in host cells – NIH3T3 host cells, beta-gal luminescence, confirmation (AID 2044); format: functional, cell-based;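 further: intracellular parasites grown in NIH/3T3 mouse fibroblasts as host cells; luminescent beta-galactosidase reporter signal from transgenic T. cruzi replicating inside host cells; inhibitors lower the luminescence signal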
[6] = loss of viability in HepG2 cells – cell-based, CellTiter-Glo, cherry-picked, cytotoxicity control for Shn3 inhibitor project, dose response (AID 624134); format: functional

Chain of Cytochrome P450 3A4 (P08684 whole entry): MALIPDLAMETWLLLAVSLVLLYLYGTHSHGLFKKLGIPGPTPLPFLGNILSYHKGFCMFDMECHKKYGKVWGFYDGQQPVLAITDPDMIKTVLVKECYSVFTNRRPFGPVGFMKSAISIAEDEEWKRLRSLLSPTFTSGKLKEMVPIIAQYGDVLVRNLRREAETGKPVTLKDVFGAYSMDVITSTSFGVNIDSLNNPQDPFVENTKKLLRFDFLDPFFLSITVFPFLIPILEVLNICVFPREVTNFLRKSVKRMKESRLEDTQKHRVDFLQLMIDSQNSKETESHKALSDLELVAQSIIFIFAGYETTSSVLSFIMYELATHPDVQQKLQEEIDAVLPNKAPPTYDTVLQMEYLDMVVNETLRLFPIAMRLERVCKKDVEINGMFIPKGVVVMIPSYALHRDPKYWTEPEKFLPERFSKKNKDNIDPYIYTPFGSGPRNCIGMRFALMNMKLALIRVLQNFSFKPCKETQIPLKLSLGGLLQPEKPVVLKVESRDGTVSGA

- AC50 (Cytochrome P450 3A4): 25.1 µM (inconclusive)
- AC50 (Cytochrome P450 2D6): inconclusive
- AC50 (Cytochrome P450 2C19): inconclusive
SMILES: CC(C)NC(=O)N1CCCC2(CCN(C(=O)c3cccc(F)c3)CC2)C1

- AC50 (Cytochrome P450 3A4): 39.8 µM (inconclusive)
- AC50 (Cytochrome P450 2D6): inconclusive
- AC50 (Cytochrome P450 2C19; read-out: AC50): 1.12 µM (inconclusive)
- EC50 [1]: 11.1 µM (active)
SMILES: Cc1ccc(-c2nnn(CC(=O)N(c3ccccc3)C(C(=O)NCC3CCCO3)c3ccc(Cl)cc3)n2)cc1 (stereo unspecified)

SMILES: Cc1nc(-c2noc(-c3ccccc3Cl)n2)c(C(F)(F)F)o1
- AC50 (HeLa): 291 µM (active)

SMILES: CCCS(=O)(=O)N1CCC(C(=O)NCc2ccccc2Cl)CC1
- IC50 [2]: > 119 µM (inactive)
- IC50 (Exodeoxyribonuclease V): > 119 µM (inactive)

- AC50 (Cytochrome P450 3A4): 6.31 µM (inconclusive)
- AC50 (Cytochrome P450 2D6): inconclusive
- AC50 (Cytochrome P450 1A2): 14.1 µM (inconclusive)
SMILES: CCOC(=O)NCN1C(=O)C2C3C=CC(C3)C2C1=O (stereo unspecified)

SMILES: Cc1ccc(CNC(=O)c2ccc3c(O)c(O)c(-c4ccc(C)cc4)nc3c2)cc1
- IC50 [2]: > 119 µM (inactive)
- AC50 [3]: 2.82 µM (active)
- IC50 (Exodeoxyribonuclease V): > 119 µM (inactive)
- EC50 [4]: 7.02 µM (active)
- EC50 [5]: 1.14 µM (active)
- AC50 [6]: 3.49 µM (active)

SMILES: O=C1CN(/N=C\c2ccc(-c3ccc([N+](=O)[O-])cc3)o2)C(O)=N1
- AC50 (Cytochrome P450 2D6): inactive

SMILES: Cc1ccc(/C=N/c2sc3c(c2C#N)CCC3)s1
- AC50 (HeLa): 82 µM (active)
